From patent US20240352046A1, “ECTONUCLEOTIDE PYROPHOSPHATASE-PHOSPHODIESTERASE-1 (ENPP1) INHIBITORS AND USES THEREOF” (1cBio, Inc., priority 2020, published 2024) come the findings set out here.

Each structure is given as a SMILES string.

Chain of ENPP-1 (Ectonucleotide Pyrophosphatase/Phosphodiesterase 1) (P22413 whole entry): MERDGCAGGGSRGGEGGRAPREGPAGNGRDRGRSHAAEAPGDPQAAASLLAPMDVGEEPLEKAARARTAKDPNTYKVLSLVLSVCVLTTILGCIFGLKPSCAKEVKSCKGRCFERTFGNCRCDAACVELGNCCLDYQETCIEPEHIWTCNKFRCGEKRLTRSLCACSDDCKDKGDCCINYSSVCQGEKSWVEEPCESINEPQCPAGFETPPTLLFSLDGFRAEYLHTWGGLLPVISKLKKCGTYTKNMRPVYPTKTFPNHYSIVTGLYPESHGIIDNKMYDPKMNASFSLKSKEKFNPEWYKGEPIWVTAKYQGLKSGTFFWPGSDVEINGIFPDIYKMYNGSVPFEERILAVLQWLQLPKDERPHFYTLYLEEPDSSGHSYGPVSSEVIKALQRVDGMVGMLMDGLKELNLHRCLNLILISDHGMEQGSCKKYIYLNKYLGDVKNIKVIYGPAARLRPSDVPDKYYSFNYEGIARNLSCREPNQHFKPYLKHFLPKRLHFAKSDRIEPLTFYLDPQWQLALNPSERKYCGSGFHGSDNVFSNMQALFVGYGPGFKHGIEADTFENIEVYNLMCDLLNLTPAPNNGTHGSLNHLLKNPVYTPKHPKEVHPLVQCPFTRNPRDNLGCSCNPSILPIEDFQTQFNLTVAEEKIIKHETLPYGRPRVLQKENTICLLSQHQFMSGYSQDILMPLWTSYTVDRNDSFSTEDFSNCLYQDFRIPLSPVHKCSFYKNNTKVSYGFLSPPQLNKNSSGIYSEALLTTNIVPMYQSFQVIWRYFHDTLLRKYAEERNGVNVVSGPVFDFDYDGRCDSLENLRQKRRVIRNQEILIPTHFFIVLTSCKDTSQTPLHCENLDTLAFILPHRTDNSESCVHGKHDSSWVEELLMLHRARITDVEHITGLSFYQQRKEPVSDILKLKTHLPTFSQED

The assay addresses ENPP-1 (Ectonucleotide Pyrophosphatase/Phosphodiesterase 1) (Homo sapiens (Human), UniProt P22413). Description: ENPP1 inhibition assay (AMP Glo, cGAMP substrate). It is filed as biochemical. The note with it: cGAMP 20 μM substrate, ENPP1 1 nM. As to the method: IC50 values of compounds against ENPP-1 (Ectonucleotide Pyrophosphatase/Phosphodiesterase 1) were determined at Integral BioSciences (India) using AMP Glo (Promega, Cat #V5011). Assay was performed in a 30 μL final volume in a white 96-well Half Area plate (Costar,Cat #3693). Dose response curve for the compounds were prepared in duplicates with starting conc. at 5 μM and a three-fold titration was performed. The reaction buffer consisted of 50 mM Tris (pH 8.0), 0.5 mM CaCl2), 1 μM ZnCl2, 250 mM NaCl and 0.1 mg/ml BSA. To the compound dilution, 15 μL of ENPP1 enzyme (R&D Systems; Cat #6136-EN-010) was added to each well (final conc. 1 nM) and the mix was pre-incubated for 15 min at RT. An equal volume (15 μL) containing cGAMP (Sigma, Cat #SML-1229) (final conc. 20 μM) was added to initiate the enzyme reaction and the reaction was incubated for 30 min at RT. The reaction was then stopped by heating at 90° C. for 3 minutes. 10 μl of reaction was then transferred to 384 well white, medium binding plates (Grenier, Cat #781075) to which 10 μl of AMP-Glo Reagent 1 was added and mixed well and incubated for 1 hour at 25° C. Following 60 min incubation, 20 μL of detection mixture was added to the enzyme reaction bringing the final volume to 40 μL. The reaction was further incubated for 60 min at RT after which the plates were read using BioTek Plate reader.
Analysis was done using the standard curve by non-linear regression, variable slope inhibitor curve fits (Graph-Pad Prism) and IC50's of compounds were determined wherever possible.
The term IC50 denotes the point on the concentration scale where inhibition reaches its midpoint. Low readings indicate inhibition by little substance, high ones a need for much substance. As for `CCCN(CCC1CN(c2ncnn3c(Cl)cc(C)c23)C1)S(N)(=O)=O` [Compound 1.95, N-(2-(1-(7-chloro-5-methylpyrrolo[2,1-f][1,2,4]triazin-4-yl)azetidin-3-yl)ethyl)-N-propylsulfamamide], 1.88 µM corresponded to half-maximal inhibition (IC50). For `CN(C1CC2(C1)CN(c1nc(Cl)nc3c1cnn3C)C2)S(N)(=O)=O` [Compound 1.96, N-(2-(6-chloro-1-methyl-1H-pyrazolo[3,4-d]pyrimidin-4-yl)-2-azaspiro[3.3]heptan-6-yl)-N-methylsulfamamide] the value was > 3 µM; for `CCCN(C1CC2(C1)CN(c1ncnn3c(Cl)cc(C)c13)C2)S(N)(=O)=O` [Compound 1.97, N-(2-(7-chloro-5-methylpyrrolo[2,1-f][1,2,4]triazin-4-yl)-2-azaspiro[3.3]heptan-6-yl)-N-propylsulfamamide], 0.036 µM. Regarding `CCN(C1CC2(C1)CN(c1ncnn3c(Cl)cc(C)c13)C2)S(N)(=O)=O` [Compound 1.98, N-(2-(7-chloro-5-methylpyrrolo[2,1-f][1,2,4]triazin-4-yl)-2-azaspiro[3.3]heptan-6-yl)-N-ethylsulfamamide], the half-maximal inhibitory concentration (IC50) worked out at 0.055 µM.

For `Cc1cc(Cl)n2ncnc(N3CC4(CC(N(CC(F)F)S(N)(=O)=O)C4)C3)c12` [Compound 1.99, N-(2-(7-chloro-5-methylpyrrolo[2,1-f][1,2,4]triazin-4-yl)-2-azaspiro[3.3]heptan-6-yl)-N-(2,2-difluoroethyl)sulfamamide], half-maximal inhibition (IC50) required 0.01 µM. As for `CN(C1CC2(C1)CN(c1ncnc3scc(-c4ccccc4)c13)C2)S(N)(=O)=O` [Compound 1.100, N-methyl-N-(2-(5-phenylthieno[2,3-d]pyrimidin-4-yl)-2-azaspiro[3.3]heptan-6-yl)sulfamamide], the figure is > 3 µM. For `Cc1cc(Cl)n2nc(C(C)C)nc(N3CC4(CC(N(C)S(N)(=O)=O)C4)C3)c12` [Compound 1.101, N-(2-(7-chloro-2-isopropyl-5-methylpyrrolo[1,2-f][1,2,4]triazin-4-yl)-2-azaspiro[3.3]heptan-6-yl)-N-methylsulfamide] the value was > 3 µM; for `CCCN(C1CC2(C1)CN(c1nc(C)nn3c(Cl)cc(C)c13)C2)S(N)(=O)=O` [Compound 1.103, N-(2-(7-chloro-2,5-dimethylpyrrolo[1,2-f][1,2,4]triazin-4-yl)-2-azaspiro[3.3]heptan-6-yl)-N-propylsulfatamide], 0.59 µM; for `CN(C1CC2(C1)CN(c1ncnc3c1cnn3C)C2)S(N)(=O)=O` [Compound 1.105, N-methyl-N-(2(1-methyl-1H-pyrazolo[3,4-d]pyrimidin-4-yl)-2-azaspiro[3.3]heptan-6-yl)sulfamamide], 0.091 µM. As for `Cc1cc(Cl)n2nc(-c3ccc(F)cc3)nc(N3CC4(CC(N(C)S(N)(=O)=O)C4)C3)c12` [Compound 1.106, N-(2-(7-chloro-2-(4-fluorophenyl)-5-methylpyrrolo[2,1-f][1,2,4]triazin-4-yl)-2-azaspiro[3.3]heptan-6-yl)-N-methylsulfamamide], the IC50 was > 3 µM.

With `CN(C1CC2(C1)CN(c1nc(N)nc3[nH]cnc13)C2)S(N)(=O)=O` [Compound 1.108, N-(2-(2-amino-9H-purin-6-yl)-2-azaspiro[3.3]heptan-6-yl)-N-methylsulfamamide], the IC50 was > 3 µM. For `Cc1cc(Cl)n2ncnc(N3CC4(CC(N(Cc5ccc(C(F)(F)F)cc5)S(N)(=O)=O)C4)C3)c12` [Compound 1.109, N-(2-(7-chloro-5-methylpyrrolo[2,1-f][1,2,4]triazin-4-yl)-2-azaspiro[3.3]heptan-6-yl)-N-(4-(trifluoromethyl)benzyl)sulfamamide] the value was 0.189 µM. For `Cc1cc(Cl)n2ncnc(N3CC4(CC(N(C5CCCC5)S(N)(=O)=O)C4)C3)c12` [Compound 1.110, N-(2-(7-chloro-5-methylpyrrolo[2,1-f][1,2,4]triazin-4-yl)-2-azaspiro[3.3]heptan-6-yl)-N-cyclopentylsulfamamide] the value was 0.395 µM; for `Cc1cc(Cl)n2ncnc(N3CC4(CC(N(C5CCC5)S(N)(=O)=O)C4)C3)c12` [Compound 1.111, N-(2-(7-chloro-5-methylpyrrolo[2,1-f][1,2,4]triazin-4-yl)-2-azaspiro[3.3]heptan-6-yl)-N-cyclobutylsulfamamide], 0.398 µM; for `Cc1cc(Cl)n2ncnc(N3CC4(CC(N(Cc5ccccc5)S(N)(=O)=O)C4)C3)c12` [Compound 1.112, N-benzyl-N-(2-(7-chloro-5-methylpyrrolo[2,1-f][1,2,4]triazin-4-yl)-2-azaspiro[3.3]heptan-6-yl)sulfamamide], 0.141 µM. As for `Cc1cc(Cl)n2ncnc(N3CC4(CC(N(CC(C)(C)C)S(N)(=O)=O)C4)C3)c12` [Compound 1.113, N-(2-(7-chloro-5-methylpyrrolo[2,1-f][1,2,4]triazin-4-yl)-2-azaspiro[3.3]heptan-6-yl)-N-neopentylsulfamamide], the figure is 0.169 µM; as for `CCCCN(C1CC2(C1)CN(c1ncnn3c(Cl)cc(C)c13)C2)S(N)(=O)=O` [Compound 1.114, N-butyl-N-(2-(7-chloro-5-methylpyrrolo[2,1-f][1,2,4]triazin-4-yl)-2-azaspiro[3.3]heptan-6-yl)sulfamamide], 0.039 µM. Regarding `Cc1cc(Cl)n2ncnc(N3CC4(CC(N(CC5CC5)S(N)(=O)=O)C4)C3)c12` [Compound 1.115, N-(2-(7-chloro-5-methylpyrrolo[2,1-f][1,2,4]triazin-4-yl)-2-azaspiro[3.3]heptan-6-yl)-N-(cyclopropylmethyl)sulfamamide], the half-maximal inhibitory concentration (IC50) is 0.051 µM. As for `Cc1cc(Cl)n2ncnc(N3CC4(CC(N(CC5CCC5)S(N)(=O)=O)C4)C3)c12` [Compound 1.116, N-(2-(7-chloro-5-methylpyrrolo[2,1-f][1,2,4]triazin-4-yl)-2-azaspiro[3.3]heptan-6-yl)-N-(cyclobutylmethyl)sulfamide], the figure is 0.069 µM. As for `Cc1cc(Cl)n2ncnc(N3CC4(CC(N(CC5CCCCC5)S(N)(=O)=O)C4)C3)c12` [Compound 1.117, N-(2-(7-chloro-5-methylpyrrolo[2,1-f][1,2,4]triazin-4-yl)-2-azaspiro[3.3]heptan-6-yl)-N-(cyclohexylmethyl)sulfamide], the figure is 0.239 µM; as for `Cc1cc(Cl)n2ncnc(N3CC4(CC(N(CC5CCC(F)(F)CC5)S(N)(=O)=O)C4)C3)c12` [Compound 1.118, N-(2-(7-chloro-5-methylpyrrolo[2,1-f][1,2,4]triazin-4-yl)-2-azaspiro[3.3]heptan-6-yl)-N-((4,4-difluorocyclohexyl)methyl)sulfamamide], 0.072 µM. With `Cc1cc(Cl)n2ncnc(N3CC4(CC(N(CC5CCC(C(F)(F)F)CC5)S(N)(=O)=O)C4)C3)c12` (centres unmarked) [Compound 1.119, N-(2-(7-chloro-5-methylpyrrolo[2,1-f][1,2,4]triazin-4-yl)-2-azaspiro[3.3]heptan-6-yl)-N-((4-(trifluoromethyl)cyclohexyl)methyl)sulfamamide], inhibition was half-maximal at 0.218 µM (IC50). On to `Cc1cc(Cl)n2ncnc(N3CC4(CC(N(CC(O)C(F)(F)F)S(N)(=O)=O)C4)C3)c12` (centres unmarked) [Compound 1.120, N-(2-(7-chloro-5-methylpyrrolo[2,1-f][1,2,4]triazin-4-yl)-2-azaspiro[3.3]heptan-6-yl)-N-(3,3,3-trifluoro-2-hydroxypropyl)sulfamamide], for which the IC50 was determined as 0.018 µM. As for `Cn1ncc2c(N3CC4(CC(N(CC(F)F)S(N)(=O)=O)C4)C3)ncnc21` [Compound 1.121, N-(2,2-difluoroethyl)-N-(2-(1-methyl-1H-pyrazolo[3,4-d]pyrimidin-4-yl)-2-azaspiro[3.3]heptan-6-yl)sulfamamide], the figure is 0.565 µM; as for `COCCN(C1CC2(C1)CN(c1ncnn3c(Cl)cc(C)c13)C2)S(N)(=O)=O` [Compound 1.122, N-(2-(7-chloro-5-methylpyrrolo[1,2-f][1,2,4]triazin-4-yl)-2-azaspiro[3.3]heptan-6-yl)-N-(2-methoxyethyl)sulfamamide], 0.062 µM; as for `CN(C1CC2(C1)CN(c1ncnc3c(Cl)cn(C)c13)C2)S(N)(=O)=O` [Compound 1.123, N-(2-(7-chloro-5-methyl-5H-pyrrolo[3,2-d]pyrimidin-4-yl)-2-azaspiro[3.3]heptan-6-yl)-N-methylsulfamamide], 0.039 µM. `CN(C1CC2(C1)CN(c1ncnc3[nH]cc(Cl)c13)C2)S(N)(=O)=O` [Compound 1.124, N-(2-(5-chloro-7,7α-dihydro-4αH-pyrrolo[2,3-d]pyrimidin-4-yl)-2-azaspiro[3.3]heptan-6-yl)-N-methylsulfamamide] yielded an IC50 of 1.86 µM. In turn, `Cc1cc(Cl)n2ncnc(N3CC4(CC(N(CCF)S(N)(=O)=O)C4)C3)c12` [Compound 1.127, N-[2-(7-chloro-5-methylpyrrolo[2,1-f][1,2,4]triazin-4-yl)-2-azaspiro[3.3]hept-6-yl]-2-fluoroethylsulfuric diamide] registered an IC50 of 0.043 µM. The compound `Cc1cc(Cl)n2ncnc(N3CC4(CC(N(CC(C)(F)F)S(N)(=O)=O)C4)C3)c12` [Compound 1.128] showed a concentration for half-maximal inhibition (IC50) of 0.03 µM.
